Results from paper PMC8036666, “Biological and Physico-Chemical Characteristics of Arginine-Rich Peptide Gemini Surfactants with Lysine and Cystine Spacers” (International Journal of Molecular Sciences, 2021).

Tests used:
[1] = test system: Pseudomonas aeruginosa ATCC 9027; set-up: method as in PMID 31581500; details: biofilm, previous study ref 65; cited from earlier work
[2] = test system: Staphylococcus aureus ATCC 25923; set-up: method as in PMID 31581500; details: planktonic culture, previous study ref 65; cited from earlier work
[3] = test system: E. coli ML-35 (ATCC 43827); experiment: Outer membrane (OM) permeabilization kinetics, CENTA; assay type: cell-based, Escherichia coli; details: over 3 h, 2 µg/mL (MIC)
Excerpt: (§1) The permeabilization of E. coli ML-35 (ATCC 43827) membranes was studied for selected compounds (A4, B2, C2, B7, and C7) to compare their activity and membrane disruption over time. […] For OM and IM permeabilization, CENTA and ONPG were used, respectively. The permeabilization of OM causes the release of periplasmic β-lactamase, which hydrolyzes CENTA’s β-lactam ring to form a chromophore, 2-nitro-5-thiobenzoate (TNB) anion, while the disruption of IM results in the release of β-galactosidase, which hydrolyzes ONPG into galactose and a chromophore, ortho-nitrophenol (ONP). Both products of enzymatic reaction absorb light at 405 nm.
Inner and outer membranes permeabilization kinetics were evaluated using Escherichia coli ML-35 (ATCC 43827) and chromogenic substrates—CENTA (BioVision, Milpitas, CA, USA) and o-nitrophenyl-β-d-galactopyranoside (ONPG) (Sigma-Aldrich, Steinheim, Germany), as described previously. To examine OM permeabilization, CENTA was used as a β-lactamase substrate. In effect of OM permeabilization, the enzyme can hydrolyze CENTA’s β-lactam ring.

[4] = test system: E. coli ML-35 (ATCC 43827)
Excerpt: as §1
The MICs were determined by the broth microdilution method according to the Clinical and Laboratory Standard Institute guidelines. For this purpose, initial inoculums of bacteria (5 × 10^5 CFU/mL) in MHB and yeasts (2 × 10^3 CFU/mL) in RPMI-1640 with 2% D-glucose were exposed to the ranging concentration of lipopeptides (0.5–256 μg/mL) and incubated at 37 °C for 18 h and 24 h, respectively. The experiments were conducted on 96-well microtiter polystyrene plates (Kartell, Noviglio, Italy). The growth was assessed visually after incubation, and the MIC was assumed as the lowest peptide concentration at which a noticeable growth of microorganisms was inhibited. All experiments were conducted in triplicate.
Inner and outer membranes permeabilization kinetics were evaluated using Escherichia coli ML-35 (ATCC 43827) and chromogenic substrates—CENTA (BioVision, Milpitas, CA, USA) and o-nitrophenyl-β-d-galactopyranoside (ONPG) (Sigma-Aldrich, Steinheim, Germany), as described previously. To examine OM permeabilization, CENTA was used as a β-lactamase substrate. In effect of OM permeabilization, the enzyme can hydrolyze CENTA’s β-lactam ring. The resulting color change (2-nitro-5-thiobenzoate anion, TNB^-) could be measured spectrophotometrically at 405 nm. The IM permeabilization was monitored with ONPG, which is a chromogenic β-galactosidase substrate. The product of this reaction ([…]) was measured spectrophotometrically at 405 nm (Multiskan GO Microplate Spectrophotometer, Thermo Fisher Scientific, Vantaa, Finland). […] Bacteria were incubated in lysogeny broth medium (LB; Biocorp, Warszawa, Poland) for 24 h at 37 °C. Subsequently, the cells were diluted in a fresh LB medium and incubated at 37 °C up to a mid-log phase (ca. 3 h). The culture was centrifuged (3 min, 1100× g) and rinsed twice with a PBS. The bacteria were resuspended in PBS up to a concentration of 5 × 10^6 CFU/mL. The final concentration of ONPG and CENTA was 1.5 mM and 0.15 mM, respectively. The ONPG/CENTA in PBS (Sigma-Aldrich, Steinheim, Germany) was used as a negative control. […] Readings were taken every 15 min for 3 h at 37 °C [125, 142, 143, 144]. Experiments were performed in triplicate on 96-well flat bottom microtiter polystyrene plates.

## C12-KKC-NH2 [Compound C12-KKC-NH2]
[1]
  MBEC P. aeruginosa ATCC 9027: > 512

## C14-KKC-NH2 [Compound C14-KKC-NH2]
[2]
  MIC S. aureus ATCC 25923: 32 µg/mL

## polymyxin B [reference compound]
[3]
  increase of absorbance at 405 nm, OM permeabilization: ca. 0.25 AU
[4]
  MIC E. coli ML-35 (ATCC 43827): 2 µg/mL
